Experimental data published in patent US10543212B2, “Substituted amines for treating cardiac diseases” (Cardurion Pharmaceuticals, LLC, priority 2017, dated 2020).

Molecular target: T1, Full-length, GST-tagged, human CaMKIIδ (Homo sapiens, UniProt Q13557)
T1 construct: Full-Length, Glutathione-S-Transferase(GST)-Tagged, Human CaMKIIδ was purchased from Carna Biosciences; purchased Carna Biosciences 02-111
Assay: CaMKIIδ binding assay (TR-FRET with BODIPY-labeled probe ligand)
Conditions: CaMKIIδ binding assay, results of Table 2
Protocol: In vitro CaMKIIδ inhibitory activity was evaluated by a binding assay.
Full-Length, Glutathione-S-Transferase(GST)-Tagged, Human CaMKIIδ was purchased from Carna Biosciences (product #02-111, Kobe, Japan). Full-length bovine calmodulin was purchased from Wako Pure Chemical Industries (Osaka, Japan). Terbium-labeled anti-GST antibody (Tb-anti-GST Ab) was purchased from Life Technologies (Carlsbad, Calif., USA). Boron-dipyrromethene (BODIPY)-labeled probe ligand was synthesized as described below.
Time-Resolved Fluorescence Resonance Energy Transfer (TR-FRET) Assay
All assays were conducted using 384-well, white, flat-bottomed plates (product #784075, Greiner Bio-One, Frickenhausen, Germany) in kinase assay buffer, which consists of 50 mM HEPES pH 7.6, 10 mM MgCl2, 1 mM EGTA, 0.01% Brig-35, 0.1 mM DTT). The fluorescent probe ligand was added at a final concentration of 300 nM to solutions containing 0.21 nM Tb-anti-GST Ab, 1 mM CaCl2), 10 μg/mL calmodulin, and 0.5 nM GST-tagged CaMKIIδ. After shaded incubation of the protein-probe mixture on ice for 30 min, the premix was dispensed in the assay plate including test inhibitors with 4 fold dilution series of eight concentrations. After 1 hr incubation at room temperature, TR-FRET signals were measured in duplicate using an EnVision microplate reader (Perkin Elmer, Waltham, Mass., USA). The solution in each well was excited with a laser (λ=340 nm) reflected by a dichroic mirror (D400/D505 (Perkin Elmer) through an excitation filter (UV (TRF) 340, (Perkin Elmer)), and fluorescence from Tb and BODIPY were detected through two emission filters (CFP 495 (Perkin Elmer) for Tb, Emission 520 (Perkin Elmer) for BODIPY).
The percentage of inhibition of test compounds was calculated according to equation (1) Inhibition (%)=100×([…]−T)/(μH−μL) (1)
Where T is the value of the wells containing test compounds and μH and μL are the mean values of the 0% and 100% inhibition control wells, respectively. The values of the 0 and 100% controls were the signals obtained in the absence and presence of 3 μM its parent compound, respectively. The half maximal inhibitory concentration (IC50) of test compounds was calculated by fitting the data with the logistic equation using XLfit (IDBS, Guildford, UK). The IC50 was classified according to the following activity ranks.

T1 sequence (Q13557 1-478 isoform Q13557-12): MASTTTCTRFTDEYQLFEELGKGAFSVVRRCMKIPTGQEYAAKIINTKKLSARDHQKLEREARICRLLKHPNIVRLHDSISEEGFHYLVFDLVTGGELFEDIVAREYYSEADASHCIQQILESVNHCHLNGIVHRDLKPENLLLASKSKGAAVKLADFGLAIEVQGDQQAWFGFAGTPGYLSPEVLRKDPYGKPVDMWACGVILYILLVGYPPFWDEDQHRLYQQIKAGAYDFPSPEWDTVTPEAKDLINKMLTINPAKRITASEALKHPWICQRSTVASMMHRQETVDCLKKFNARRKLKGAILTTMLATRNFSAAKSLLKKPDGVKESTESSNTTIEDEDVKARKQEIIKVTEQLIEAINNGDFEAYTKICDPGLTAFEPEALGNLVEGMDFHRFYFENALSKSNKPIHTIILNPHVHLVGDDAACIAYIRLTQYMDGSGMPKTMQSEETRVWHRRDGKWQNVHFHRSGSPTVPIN

SMILES	IC50
COc1cc(C2CCCNC2)ccc1Nc1ncc(-c2ccc(C#N)c(O[C@@H](C)Cn3cnnn3)c2)cn1 (stereo partly drawn) [Example 472, 2-(((S)-1-(1H-tetrazol-1-yl)propan-2-yl)oxy)-4-(2-((2-methoxy-4-(piperidin-3-yl)phenyl)amino)pyrimidin-5-yl)benzonitrile]	< 10 nM
COc1cc(C2CCCNC2)ccc1Nc1ncc(-c2ccc(Cl)c(O[C@@H](C)Cn3cnnn3)c2)cn1 (stereo partly drawn) [Example 473, 5-(3-(((S)-1-(1H-tetrazol-1-yl)propan-2-yl)oxy)-4-chlorophenyl)-N-(2-methoxy-4-(piperidin-3-yl)phenyl)pyrimidin-2-amine]	< 10 nM
COc1cc2c(cc1Nc1ncc(-c3ccc(Cl)c(O[C@@H](C)Cn4cnnn4)c3)cn1)CCN(C1CCOCC1)C2 [Example 474, (S)-N-(5-(3-((1-(1H-tetrazol-1-yl)propan-2-yl)oxy)-4-chlorophenyl)pyrimidin-2-yl)-7-methoxy-2-(tetrahydro-2H-pyran-4-yl)-1,2,3,4-tetrahydroisoquinolin-6-amine]	< 10 nM
COc1cc2c(cc1Nc1ncc(-c3ccc(Cl)c(O[C@@H](C)Cn4cnnn4)c3)cn1)CCN(CC1COC1)C2 [Example 475, (S)-N-(5-(3-((1-(1H-tetrazol-1-yl)propan-2-yl)oxy)-4-chlorophenyl)pyrimidin-2-yl)-7-methoxy-2-(oxetan-3-ylmethyl)-1,2,3,4-tetrahydroisoquinolin-6-amine]	< 10 nM
COc1cc2c(cc1Nc1ncc(-c3ccc(Cl)c(O[C@@H](C)Cn4cnnn4)c3)cn1)CCN(CC(F)F)C2 [Example 476, (S)-N-(5-(3-((1-(1H-tetrazol-1-yl)propan-2-yl)oxy)-4-chlorophenyl)pyrimidin-2-yl)-2-(2,2-difluoroethyl)-7-methoxy-1,2,3,4-tetrahydroisoquinolin-6-amine]	10 to 100 nM
COc1cc2c(cc1Nc1ncc(-c3ccc(Cl)c(O[C@@H](C)Cn4cnnn4)c3)cn1)NCC2 [Example 477, (S)-N-(5-(3-((1-(1H-tetrazol-1-yl)propan-2-yl)oxy)-4-chlorophenyl)pyrimidin-2-yl)-5-methoxyindolin-6-amine]	10 to 100 nM
Cc1cnc(N2CCC(N3CCOCC3)CC2)cc1Nc1ncc(-c2ccc(Cl)c(O[C@@H](C)Cn3cnnn3)c2)cn1 [Example 478, (S)-5-(3-((1-(1H-tetrazol-1-yl)propan-2-yl)oxy)-4-chlorophenyl)-N-(5-methyl-2-(4-morpholinopiperidin-1-yl)pyridin-4-yl)pyrimidin-2-amine]	10 to 100 nM
COc1cc2c(cc1Nc1ncc(-c3ccc(Cl)c(O[C@@H](C)Cn4cnnn4)c3)cn1)CCN(CC(C)=O)C2 [Example 479, (S)-1-(6-((5-(3-((1-(1H-tetrazol-1-yl)propan-2-yl)oxy)-4-chlorophenyl)pyrimidin-2-yl)amino)-7-methoxy-3,4-dihydroisoquinolin-2(1H)-yl)propan-2-one]	< 10 nM
COc1cc2c(cc1Nc1ncc(-c3ccc(Cl)c(O[C@@H](C)Cn4cnnn4)c3)cn1)CCN(CCO)C2 [Example 480, (S)-2-(6-((5-(3-((1-(1H-tetrazol-1-yl)propan-2-yl)oxy)-4-chlorophenyl)pyrimidin-2-yl)amino)-7-methoxy-3,4-dihydroisoquinolin-2(1H)-yl)ethan-1-ol]	< 10 nM
COc1cnc(N2CCC(C)(O)CC2)cc1Nc1ncc(-c2ccc(Cl)c(O[C@@H](C)Cn3cnnn3)c2)cn1 [Example 481, (S)-1-(4-((5-(3-((1-(1H-tetrazol-1-yl)propan-2-yl)oxy)-4-chlorophenyl)pyrimidin-2-yl)amino)-5-methoxypyridin-2-yl)-4-methylpiperidin-4-ol]	10 to 100 nM
C[C@@H](Cn1cnnn1)Oc1cc(-c2cnc(Nc3cn(C4CCN(C(=O)OC(C)(C)C)CC4)nc3C(F)(F)F)nc2)ccc1Cl [Example 482, tert-butyl (S)-4-(4-((5-(3-((1-(1H-tetrazol-1-yl)propan-2-yl)oxy)-4-chlorophenyl)pyrimidin-2-yl)amino)-3-(trifluoromethyl)-1H-pyrazol-1-yl)piperidine-1-carboxylate]	10 to 100 nM
C[C@@H](Cn1cnnn1)Oc1cc(-c2cnc(Nc3cn(C4CCNCC4)nc3C(F)(F)F)nc2)ccc1Cl [Example 483, (S)-5-(3-((1-(1H-tetrazol-1-yl)propan-2-yl)oxy)-4-chlorophenyl)-N-(1-(piperidin-4-yl)-3-(trifluoromethyl)-1H-pyrazol-4-yl)pyrimidin-2-amine]	< 10 nM
C[C@@H](Cn1cnnn1)Oc1cc(-c2cnc(Nc3cn(C4CCN(CC(F)F)CC4)nc3C(F)(F)F)nc2)ccc1Cl [Example 485, (S)-5-(3-((1-(1H-tetrazol-1-yl)propan-2-yl)oxy)-4-chlorophenyl)-N-(1-(1-(2,2-difluoroethyl)piperidin-4-yl)-3-(trifluoromethyl)-1H-pyrazol-4-yl)pyrimidin-2-amine]	10 to 100 nM
C[C@@H](Cn1cnnn1)Oc1cc(-c2cnc(Nc3cn(C4CCN(CC(F)(F)F)CC4)nc3C(F)(F)F)nc2)ccc1Cl [Example 486, (S)-5-(3-((1-(1H-tetrazol-1-yl)propan-2-yl)oxy)-4-chlorophenyl)-N-(1-(1-(2,2,2-trifluoroethyl)piperidin-4-yl)-3-(trifluoromethyl)-1H-pyrazol-4-yl)pyrimidin-2-amine]	10 to 100 nM
C[C@@H](Cn1cnnn1)Oc1cc(-c2cnc(Nc3cn(C4CCN(C)CC4)nc3C(F)(F)F)nc2)ccc1Cl [Example 487, (S)-5-(3-((1-(1H-tetrazol-1-yl)propan-2-yl)oxy)-4-chlorophenyl)-N-(1-(1-methylpiperidin-4-yl)-3-(trifluoromethyl)-1H-pyrazol-4-yl)pyrimidin-2-amine]	< 10 nM
CC(=O)N1CCC(n2cc(Nc3ncc(-c4ccc(Cl)c(O[C@@H](C)Cn5cnnn5)c4)cn3)c(C(F)(F)F)n2)CC1 [Example 488, (S)-1-(4-(4-((5-(3-((1-(1H-tetrazol-1-yl)propan-2-yl)oxy)-4-chlorophenyl)pyrimidin-2-yl)amino)-3-(trifluoromethyl)-1H-pyrazol-1-yl)piperidin-1-yl)ethan-1-one]	< 10 nM
C[C@@H](Cn1cnnn1)Oc1cc(-c2cnc(Nc3cn(C4CCN(CC5COC5)CC4)nc3C(F)(F)F)nc2)ccc1Cl [Example 489, (S)-5-(3-((1-(1H-tetrazol-1-yl)propan-2-yl)oxy)-4-chlorophenyl)-N-(1-(1-(oxetan-3-ylmethyl)piperidin-4-yl)-3-(trifluoromethyl)-1H-pyrazol-4-yl)pyrimidin-2-amine]	< 10 nM
COc1cc2c(cc1Nc1ncc(-c3ccc(Cl)c(O[C@@H](C)Cn4cnnn4)c3)cn1)CCN(CC(F)(F)F)C2 [Example 490, (S)-N-(5-(3-((1-(1H-tetrazol-1-yl)propan-2-yl)oxy)-4-chlorophenyl)pyrimidin-2-yl)-7-methoxy-2-(2,2,2-trifluoroethyl)-1,2,3,4-tetrahydroisoquinolin-6-amine]	10 to 100 nM
Cc1ccc(N2CCC(N3CCOCC3)CC2)cc1Nc1ncc(-c2ccc(Cl)c(O[C@@H](C)Cn3cnnn3)c2)cn1 [Example 491]	< 10 nM
COCCN1CCc2cc(Nc3ncc(-c4ccc(Cl)c(O[C@@H](C)Cn5cnnn5)c4)cn3)c(OC)cc2C1 [Example 492, (S)-N-(5-(3-((1-(1H-tetrazol-1-yl)propan-2-yl)oxy)-4-chlorophenyl)pyrimidin-2-yl)-7-methoxy-2-(2-methoxyethyl)-1,2,3,4-tetrahydroisoquinolin-6-amine]	< 10 nM
COc1cc(C2CCCN(C3COC3)C2)ccc1Nc1ncc(-c2ccc(C#N)c(O[C@@H](C)Cn3cnnn3)c2)cn1 (stereo partly drawn) [Example 493, 2-(((S)-1-(1H-tetrazol-1-yl)propan-2-yl)oxy)-4-(2-((2-methoxy-4-(1-(oxetan-3-yl)piperidin-3-yl)phenyl)amino)pyrimidin-5-yl)benzonitrile]	< 10 nM
COc1cc(C2CCCN(C3COC3)C2)ccc1Nc1ncc(-c2ccc(Cl)c(O[C@@H](C)Cn3cnnn3)c2)cn1 (stereo partly drawn) [Example 494, 5-(3-(((S)-1-(1H-tetrazol-1-yl)propan-2-yl)oxy)-4-chlorophenyl)-N-(2-methoxy-4-(1-(oxetan-3-yl)piperidin-3-yl)phenyl)pyrimidin-2-amine]	< 10 nM
COc1ccc(N2CCC(N3CCOCC3)CC2)cc1Nc1ncc(-c2ccc(C#N)c(O[C@@H](C)COC(F)F)c2)cn1 [Example 495, (S)-2-((1-(difluoromethoxy)propan-2-yl)oxy)-4-(2-((2-methoxy-5-(4-morpholinopiperidin-1-yl)phenyl)amino)pyrimidin-5-yl)benzonitrile]	10 to 100 nM
